Results from publication PMC7026418, “The kinase polypharmacology landscape of clinical PARP inhibitors” (Scientific Reports, 2020).
Read-outs that look alike come from different tables or passages of the source. Each block holds one compound with its values, some of them ahead of it.

Assays:
Assay in all cases: biochemical
Design in all cases: DiscoveRx KINOMEscan active site-directed competition binding; percent of control kinase bound to immobilised ligand
[1] = biological target: T1, ASK1 (Homo sapiens, UniProt Q99683)
T1 construct: gene MAP3K5
T1 sequence (Q99683 1-1374): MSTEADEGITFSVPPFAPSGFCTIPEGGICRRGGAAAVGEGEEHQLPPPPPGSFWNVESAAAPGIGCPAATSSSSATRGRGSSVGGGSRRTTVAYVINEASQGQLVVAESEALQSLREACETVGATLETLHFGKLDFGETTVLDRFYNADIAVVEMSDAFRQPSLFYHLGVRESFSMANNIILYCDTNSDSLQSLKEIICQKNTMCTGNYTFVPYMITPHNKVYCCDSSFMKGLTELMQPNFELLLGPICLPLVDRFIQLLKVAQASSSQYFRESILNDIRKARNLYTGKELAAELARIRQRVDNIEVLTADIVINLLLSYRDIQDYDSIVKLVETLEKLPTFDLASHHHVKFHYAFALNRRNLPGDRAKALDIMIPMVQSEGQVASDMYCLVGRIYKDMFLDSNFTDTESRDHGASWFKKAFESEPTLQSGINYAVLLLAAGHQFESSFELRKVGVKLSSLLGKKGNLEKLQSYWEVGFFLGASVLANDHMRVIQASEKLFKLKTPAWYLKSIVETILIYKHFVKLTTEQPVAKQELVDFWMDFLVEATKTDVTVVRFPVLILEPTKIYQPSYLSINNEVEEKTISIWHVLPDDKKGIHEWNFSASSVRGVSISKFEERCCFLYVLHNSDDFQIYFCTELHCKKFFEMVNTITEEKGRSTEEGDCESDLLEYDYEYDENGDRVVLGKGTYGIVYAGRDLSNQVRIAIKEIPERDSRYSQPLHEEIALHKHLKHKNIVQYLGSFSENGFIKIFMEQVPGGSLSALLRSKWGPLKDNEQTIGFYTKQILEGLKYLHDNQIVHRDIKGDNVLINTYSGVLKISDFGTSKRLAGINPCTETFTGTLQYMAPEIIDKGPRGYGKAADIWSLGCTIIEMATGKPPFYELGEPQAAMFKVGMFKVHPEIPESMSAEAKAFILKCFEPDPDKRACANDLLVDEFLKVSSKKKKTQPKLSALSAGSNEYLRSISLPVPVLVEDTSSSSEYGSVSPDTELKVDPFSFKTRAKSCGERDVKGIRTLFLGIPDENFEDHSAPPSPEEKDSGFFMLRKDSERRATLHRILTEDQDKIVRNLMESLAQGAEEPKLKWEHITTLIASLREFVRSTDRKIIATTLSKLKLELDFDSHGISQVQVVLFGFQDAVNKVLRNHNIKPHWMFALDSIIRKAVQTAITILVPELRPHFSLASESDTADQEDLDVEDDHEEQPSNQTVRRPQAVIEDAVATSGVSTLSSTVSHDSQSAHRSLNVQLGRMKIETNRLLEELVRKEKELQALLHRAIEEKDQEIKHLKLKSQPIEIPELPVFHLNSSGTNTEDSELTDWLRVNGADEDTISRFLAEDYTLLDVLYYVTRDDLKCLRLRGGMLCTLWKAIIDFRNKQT

[2] = biological target: CAMK2A (Homo sapiens, UniProt Q9UQM7)
[3] = biological target: T2, CHEK1 (Homo sapiens, UniProt O14757)
T2 sequence (O14757 1-476): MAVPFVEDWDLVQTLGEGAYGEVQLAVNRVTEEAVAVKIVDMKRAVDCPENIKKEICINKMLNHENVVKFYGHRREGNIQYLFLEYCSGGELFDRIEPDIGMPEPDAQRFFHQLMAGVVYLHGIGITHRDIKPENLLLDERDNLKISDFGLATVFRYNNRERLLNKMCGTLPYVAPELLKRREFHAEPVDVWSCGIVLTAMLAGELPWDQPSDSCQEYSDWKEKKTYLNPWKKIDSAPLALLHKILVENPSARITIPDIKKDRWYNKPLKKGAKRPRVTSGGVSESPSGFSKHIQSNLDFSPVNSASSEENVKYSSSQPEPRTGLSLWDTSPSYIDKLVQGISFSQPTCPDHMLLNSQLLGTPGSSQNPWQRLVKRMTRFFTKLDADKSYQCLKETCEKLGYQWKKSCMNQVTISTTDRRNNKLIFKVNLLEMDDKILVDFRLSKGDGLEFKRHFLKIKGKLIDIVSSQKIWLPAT

[4] = biological target: EGFR(L858R) (Homo sapiens, UniProt P00533, L858R)
[5] = biological target: T3, ITK (Homo sapiens, UniProt Q08881)
T3 sequence (Q08881 1-620): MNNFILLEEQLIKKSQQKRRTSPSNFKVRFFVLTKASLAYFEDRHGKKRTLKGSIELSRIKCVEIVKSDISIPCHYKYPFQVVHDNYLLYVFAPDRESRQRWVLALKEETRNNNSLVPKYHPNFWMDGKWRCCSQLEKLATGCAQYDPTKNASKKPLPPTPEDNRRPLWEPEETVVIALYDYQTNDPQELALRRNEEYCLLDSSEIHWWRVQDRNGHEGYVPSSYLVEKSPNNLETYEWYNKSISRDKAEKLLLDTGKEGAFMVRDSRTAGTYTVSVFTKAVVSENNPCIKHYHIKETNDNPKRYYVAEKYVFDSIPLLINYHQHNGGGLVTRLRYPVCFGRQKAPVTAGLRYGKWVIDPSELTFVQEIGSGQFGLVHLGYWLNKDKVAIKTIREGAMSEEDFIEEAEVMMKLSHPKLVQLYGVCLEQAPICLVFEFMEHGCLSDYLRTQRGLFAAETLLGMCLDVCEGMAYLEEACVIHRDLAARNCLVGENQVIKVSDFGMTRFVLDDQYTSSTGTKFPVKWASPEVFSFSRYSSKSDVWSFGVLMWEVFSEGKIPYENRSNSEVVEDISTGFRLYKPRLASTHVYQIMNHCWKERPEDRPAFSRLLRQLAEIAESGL

[6] = biological target: PHKG1 (Homo sapiens, UniProt Q16816)
[7] = read-out: Niraparib (MK-4827) / %Ctrl @ 10000nM
[8] = read-out: Olaparib / %Ctrl @ 10000nM
[9] = read-out: Rucaparib / %Ctrl @ 10000nM, binding competition, % of control
[10] = read-out: Talazoparib (BMN 673) / %Ctrl @ 10000nM

Chain of CAMK2A (Q9UQM7 whole entry): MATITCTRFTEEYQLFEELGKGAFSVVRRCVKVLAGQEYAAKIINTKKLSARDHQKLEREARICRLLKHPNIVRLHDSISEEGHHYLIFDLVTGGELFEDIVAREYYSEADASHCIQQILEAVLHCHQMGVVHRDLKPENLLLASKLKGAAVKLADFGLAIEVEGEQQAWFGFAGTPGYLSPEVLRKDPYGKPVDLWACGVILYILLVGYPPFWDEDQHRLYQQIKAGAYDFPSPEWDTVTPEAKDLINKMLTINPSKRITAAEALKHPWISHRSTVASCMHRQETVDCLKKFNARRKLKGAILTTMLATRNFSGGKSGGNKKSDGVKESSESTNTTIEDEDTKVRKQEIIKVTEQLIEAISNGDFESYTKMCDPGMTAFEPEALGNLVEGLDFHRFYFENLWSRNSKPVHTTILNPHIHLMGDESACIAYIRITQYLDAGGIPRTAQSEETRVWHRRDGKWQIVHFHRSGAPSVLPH
Chain of PHKG1 (Q16816 whole entry): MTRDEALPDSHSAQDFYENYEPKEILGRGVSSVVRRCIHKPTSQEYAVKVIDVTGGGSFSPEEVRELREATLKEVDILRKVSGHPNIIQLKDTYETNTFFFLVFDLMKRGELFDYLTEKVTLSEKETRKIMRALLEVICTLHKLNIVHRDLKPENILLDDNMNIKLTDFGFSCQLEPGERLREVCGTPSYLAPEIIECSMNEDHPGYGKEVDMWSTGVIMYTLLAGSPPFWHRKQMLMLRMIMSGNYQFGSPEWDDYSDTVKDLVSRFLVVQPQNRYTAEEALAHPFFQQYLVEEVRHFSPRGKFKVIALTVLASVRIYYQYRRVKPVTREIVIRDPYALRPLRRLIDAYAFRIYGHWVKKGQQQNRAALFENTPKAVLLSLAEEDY
Chain of EGFR(L858R) (P00533 whole entry L858R): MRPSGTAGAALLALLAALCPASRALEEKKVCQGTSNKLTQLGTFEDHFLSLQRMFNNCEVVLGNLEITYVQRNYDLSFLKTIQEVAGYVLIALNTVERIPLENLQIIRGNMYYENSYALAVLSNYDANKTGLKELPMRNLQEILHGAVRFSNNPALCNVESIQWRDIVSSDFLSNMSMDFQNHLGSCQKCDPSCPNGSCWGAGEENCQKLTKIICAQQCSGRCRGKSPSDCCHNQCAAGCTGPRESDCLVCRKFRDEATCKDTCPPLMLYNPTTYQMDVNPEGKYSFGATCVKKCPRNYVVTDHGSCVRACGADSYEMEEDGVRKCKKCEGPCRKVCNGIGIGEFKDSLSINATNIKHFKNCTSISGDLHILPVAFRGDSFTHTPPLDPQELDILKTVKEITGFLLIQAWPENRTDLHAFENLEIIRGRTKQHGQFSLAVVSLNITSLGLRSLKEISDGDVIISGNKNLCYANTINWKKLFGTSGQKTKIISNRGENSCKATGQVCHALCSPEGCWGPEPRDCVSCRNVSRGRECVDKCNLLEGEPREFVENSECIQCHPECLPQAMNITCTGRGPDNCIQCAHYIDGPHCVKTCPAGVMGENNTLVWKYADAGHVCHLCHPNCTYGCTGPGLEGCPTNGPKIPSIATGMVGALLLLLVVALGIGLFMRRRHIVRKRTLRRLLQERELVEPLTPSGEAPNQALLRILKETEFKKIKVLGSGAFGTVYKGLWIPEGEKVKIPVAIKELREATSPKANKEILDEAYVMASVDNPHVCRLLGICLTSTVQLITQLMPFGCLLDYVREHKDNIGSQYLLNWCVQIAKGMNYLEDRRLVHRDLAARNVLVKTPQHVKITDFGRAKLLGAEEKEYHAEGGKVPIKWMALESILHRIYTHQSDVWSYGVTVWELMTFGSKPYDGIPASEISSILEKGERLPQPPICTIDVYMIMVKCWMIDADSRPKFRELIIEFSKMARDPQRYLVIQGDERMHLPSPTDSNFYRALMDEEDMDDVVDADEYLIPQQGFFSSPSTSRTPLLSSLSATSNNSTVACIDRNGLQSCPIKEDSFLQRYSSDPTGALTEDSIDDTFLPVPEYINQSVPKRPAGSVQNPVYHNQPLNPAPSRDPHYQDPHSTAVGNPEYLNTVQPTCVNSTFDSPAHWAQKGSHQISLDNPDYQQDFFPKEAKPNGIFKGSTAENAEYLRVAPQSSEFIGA

Compound: NC(=O)c1cccc2cn(-c3ccc([C@@H]4CCCNC4)cc3)nc12 [Niraparib]
- percent of control binding at 10 µM [1, 7]: 90%
- percent of control binding at 10 µM [2, 7]: 78%
- percent of control binding at 10 µM [3, 7]: 72%
- percent of control binding at 10 µM [4, 7]: 70%
- percent of control binding at 10 µM [5, 7]: 91%
- percent of control binding at 10 µM [6, 7]: 100%

- percent of control binding at 10 µM [1, 8]: 94%
- percent of control binding at 10 µM [2, 8]: 96%
- percent of control binding at 10 µM [3, 8]: 79%
- percent of control binding at 10 µM [4, 8]: 92%
- percent of control binding at 10 µM [5, 8]: 100%
- percent of control binding at 10 µM [6, 8]: 100%
Compound: O=C(c1cc(Cc2n[nH]c(=O)c3ccccc23)ccc1F)N1CCN(C(=O)C2CC2)CC1 [Olaparib]

- percent of control binding at 10 µM [1, 9]: 92%
- percent of control binding at 10 µM [2, 9]: 79%
- percent of control binding at 10 µM [3, 9]: 100%
- percent of control binding at 10 µM [4, 9]: 96%
- percent of control binding at 10 µM [5, 9]: 100%
- percent of control binding at 10 µM [6, 9]: 87%
Compound: CNCc1ccc(-c2[nH]c3cc(F)cc4c3c2CCNC4=O)cc1 [Rucaparib]

- percent of control binding at 10 µM [1, 10]: 93%
- percent of control binding at 10 µM [2, 10]: 86%
- percent of control binding at 10 µM [3, 10]: 86%
- percent of control binding at 10 µM [4, 10]: 97%
- percent of control binding at 10 µM [5, 10]: 84%
- percent of control binding at 10 µM [6, 10]: 90%
Compound: Cn1ncnc1[C@H]1c2n[nH]c(=O)c3cc(F)cc(c23)N[C@@H]1c1ccc(F)cc1 [Talazoparib]
